Data reported in patent US7388096B2, “Crystalline forms of a factor Xa inhibitor” (Bristol-Myers Squibb Company, priority 2004, dated 2008).
Entries after “also recorded” stand apart in the source; their conditions may differ.

Key:
Type in all cases: physicochemical
[1] = form conversion in slurry / relative thermodynamic stability of polymorphs
Protocol: (§1) SSNMR and XRPD indexing studies have proven that Form N-3 is a single phase. No significant weight loss was observed up to about 250° C. in TGA analysis. […] Form N-3 has the tendency to form small primary particles (<10 μm) of the shape of needles or rods.
(§2) P-1 is a desolvated phase obtained by drying the initial material (potential solvates) crystallized from the reaction mixture. P-1 has never been observed in slurry, and therefore there is no evidence to support assignment of P-1 as a single and neat phase that is crystallized directly from the reaction mixture. […] P-1 can also convert to Form N-2 upon heating at 230° C. in solid state.
A Good Laboratory Practice batch (˜550 g) of Form N-3 has been manufactured successfully by converting P-1 material using a slurry method in acetone at about 50° C. Acetone slurries of Form P-1 spiked at about 50° C. with 1% water still yield Form N-3, but the slurries spiked with 5% and 10% water result in P-3 (solvated) material. […] The hemi sec BuOH solvate, form 0.5SBU-4, converts to form N-2 upon heating. […] Form N-1 also undergoes a solid state transition to Form N-2 upon heating at about 90 to 130° C. In addition, P-1 converts to potential solvate/hydrate forms by slurrying in different solvent systems, e.g., MeOH/EtOAc, DMF/H2O, DMSO/H2O, NMP/H2O at room temperature or at about 50° C.

[2] = accelerated stability studies (physical stability, XRPD of stressed samples); conditions: for physical stability in accelerated stability studies: 40° C./75% RH/Open/4 Weeks and 50° C./Closed/4 Weeks
Protocol: as §1
Form N-1 undergoes a solid-state transition at about 90° C. as evidenced by hot-stage microscopy studies and converts to Form N-2 at about 90° C. which is confirmed by […] studies. Thermal analysis by DSC (FIG. 8) and TGA show a small exotherm at about 113° C., which is attributed to the solid-state transition to Form N-2, followed by a melting endotherm at about 255 to about 259° C. similar to the melting range for Form N-2.
as §2

[3] = moisture sorption and desorption study; conditions: for hygroscopicity (in words): moisture sorption and desorption study
Protocol: as §1, §2

Structure (SMILES): NC(=O)c1nn(-c2cccc(Cl)c2)c2c1CCN(c1ccc(-n3ccccc3=O)cc1)C2=O [Form P-1, 1-(3-chlorophenyl)-7-oxo-6-[4-(2-oxo-1(2H)pyridinyl)phenyl]-4,5,6,7-tetrahydro-1H-pyrazolo[3,4-c]pyridine-3-carboxamide]
- form conversion in solvents ([1]; in solvents (e.g., acetone)): converts to Form N-3
- form conversion in slurry ([1]; slurry in different solvents (e.g., acetone, ACN, DMSO/MTBE) at about 50° C.): converts to Form N-3
- physical stability in accelerated stability studies (XRPD assay) ([2]; stressed for 3 weeks, 40° C./75% RH/Open): physically unstable
- hygroscopicity (in words) [3]: hygroscopic
- weight gain on adsorption ([3]; to 90% RH): ~16%

Structure (SMILES): NC(=O)c1nn(-c2cccc(Cl)c2)c2c1CCN(c1ccc(-n3ccccc3=O)cc1)C2=O [Form N-2, 1-(3-chlorophenyl)-7-oxo-6-[4-(2-oxo-1(2H)pyridinyl)phenyl]-4,5,6,7-tetrahydro-1H-pyrazolo[3,4-c]pyridine-3-carboxamide]
- relative thermodynamic stability of polymorphs ([1]; 25° C. to 60° C.): thermodynamically less stable than polymorph N-3
- form conversion in slurry ([1]; slurry at 25 and 60° C.): converts to N-3
- form conversion in slurry ([1]; slurry in acetone at RT or about 50° C.): converts to Form N-3 readily
- physical stability in stability study ([2]; 40° C./75% RH/Open for 5 Weeks and 50° C./Closed for 4 Weeks): physically stable
- moisture adsorption ([3]; at 90% RH at 25° C.): ~1.2%
- hygroscopicity (in words) [3]: nonhygroscopic

Structure (SMILES): NC(=O)c1nn(-c2cccc(Cl)c2)c2c1CCN(c1ccc(-n3ccccc3=O)cc1)C2=O [Form N-3, 1-(3-chlorophenyl)-7-oxo-6-[4-(2-oxo-1(2H)pyridinyl)phenyl]-4,5,6,7-tetrahydro-1H-pyrazolo[3,4-c]pyridine-3-carboxamide]
- relative thermodynamic stability of polymorphs ([1]; 25° C. to 60° C.): thermodynamically more stable than polymorphs N-1 and N-2
- relative thermodynamic stability of polymorphs ([1]; room temperature to 60° C., from slurry conversions): thermodynamically more stable polymorph
- physical stability in accelerated stability studies [2]: physically stable
- hygroscopicity (in words) [3]: nonhygroscopic; also recorded: non-hygroscopic
- hysteresis in moisture sorption/desorption ([3]; up to 95% RH at 25° C.): no hysteresis was observed
- moisture sorption ([3]; up to 95% RH at 25° C.): 0.4%

Structure (SMILES): NC(=O)c1nn(-c2cccc(Cl)c2)c2c1CCN(c1ccc(-n3ccccc3=O)cc1)C2=O [Form N-1, 1-(3-chlorophenyl)-7-oxo-6-[4-(2-oxo-1(2H)pyridinyl)phenyl]-4,5,6,7-tetrahydro-1H-pyrazolo[3,4-c]pyridine-3-carboxamide]
- form conversion in slurry ([1]; slurry in acetone): converts to N-3 readily
- physical stability in accelerated stability studies [2]: physically unstable
